Assay: Inhibition of human recombinant caspase-3 expressed in Saccharomyces cerevisiae CG379 assessed as growth stimulation after 2 days

IC50: 35.3 µM
Structure (SMILES): CC(C)[C@H](NC(=O)OCc1ccccc1)C(=O)N[C@H](C=CS(C)(=O)=O)CC(=O)O [(S)-3-((S)-2-(benzyloxycarbonylamino)-3-methylbutanamido)-5-(methylsulfonyl)pent-4-enoic acid]

Reference: BindingDB's records for doi:10.1016/j.ejmech.2011.02.067 (University of Lisbon, 2011)
